From publication PMC9174720, “Evaluation of antioxidant and cytotoxic properties of phenolic N-acylhydrazones: structure–activity relationship” (Royal Society Open Science, 2022)
Read-outs that look alike come from different tables or passages of the source.

Key:
MRC-5 = test: MTT cytotoxicity assay on MRC-5 cells; assay type: cell-based; conditions: Homo sapiens, MRC5, MRC-5 cell line, read-out: Growth inhibitory effects IC50
Method: (§1) In this in vitro study, we investigated the influence of PheNAHs on two model systems: human colorectal carcinoma HCT-116 and human healthy fibroblast cell line MRC-5. Both cell lines of low passages were purchased from the European collection of authenticated cell cultures (ECACC) and were cultivated in Dulbecco's Modified Eagle Medium (DMEM) (Sigma, D5796) cell culture medium supplemented with 10% foetal bovine serum (Sigma, F4135-500 ML) and 1% penicillin/streptomycin (Sigma, P4333-100 ML) in 75 cm^2 culture flasks. The cells were maintained according to the standardized procedure in the incubator with humidified atmosphere supplemented with 5% CO2 at a physiological temperature of 37°C, and after a few passages and a confluence of about 80%, the cells were used in all in vitro experiments (Laboratory for Bioengineering protocol CB-003).
(§2) The ability of synthesized compounds to inhibit the growth of two different cell lines was estimated by a standardized 3-(4,5-dimethylthiazol-2-yl)-2,5-diphenyltetrazolium bromide (MTT) assay (Laboratory for Bioengineering protocol CB-005). The approximative number of 10 000 cells per well (in 96-well microplates) were seeded and kept in the incubator for 24 h to enable cell adhesion. After the incubation period, the cells were treated with investigated compounds in the concentration range from 0,1 to 500 µM dissolved in DMEM. Cytotoxic effect was evaluated 24 and 72 h from treatment by following the number of survived cells, thus the cell viability. MTT assay is based on spectrophotometric measurement of reduction rate of 3-(4,5-dimethylthiazol-2-yl)-2,5-diphenyltetrazolium bromide (MTT, Acros Organics, 158990010) to purple formazan crystals subsequently dissolved in DMSO (Fisher Chemical, D/4121/PB15) on a microplate reader (Rayto 2100C) at 550 nm. The percentage of the survived (viable) cells was estimated by dividing the absorbance of the treatment with the absorbance of the control (non-treated) cells and multiplied by 100 [47]. As positive controls, Leucovorin and Irinotecan were selected as compounds used in colon cancer treatment.
(§3) Biological activity was the result of two individual experiments, performed in triplicate for each dose. Statistical analyses were determined using the one-way analysis of variance (ANOVA) test for multiple comparisons, SPSS (Chicago, IL) statistical software package (SPSS for Windows, v. 17, 2008). The IC50 values were calculated from the dose curves by a computer program (CalcuSyn). IC50 values represent the half-maximal inhibitory concentration of tested compounds to measure the influence in inhibition of cell growth for 50%. […] At the beginning of the process of selecting the anti-cancer drug candidate, it is necessary to make a rough preselection between the tested substances. In vitro analysis on cancer and healthy cell lines is quantified in different ways, selectivity also. The selectivity index (SI) of tested drugs usually refers to the simple ratio of IC50 values determined for cancer and healthy cells. Also, the SI can be used for the expression of many other examples, such as SI between antibacterial and antiviral effect, discrimination of the drugs effect between many cancer cell lines, etc. In our experimentation, the values greater than ‘1’ indicate selectivity of the tested substance toward cancer cell line.

HCT-116 = test: MTT cytotoxicity assay on HCT-116 cells; assay type: cell-based, human; conditions: for IC50: Homo sapiens, HCT-116 cell line, read-out: Growth inhibitory effects IC50; for selectivity index (SI): ratio of IC50 values of MRC-5 and HCT-116, values greater than 1 indicate selectivity toward cancer cell line; for cytotoxic effect in words (from IC50 values): MTT
Method: as §1, §2, §3

[1] = DPPH radical scavenging assay; assay type: biochemical; conditions: for IC50: DPPH 0.05 mM in methanol, incubated 20 and 60 min, absorbance at 517 nm, mean ± s.d. of three measurements, read-out: IC50 for inactivation of DPPH free radical; for stoichiometric factor (SF): SF=[DPPH]/(2×IC50), good antioxidant if SF ≥ 2
Method: The antioxidant screening of all PheNAHs was performed using the 2,2-diphenyl-1-picrylhydrazyl (DPPH) method. The solution of DPPH radical in methanol (0.05 mM, 1 ml) was mixed with the tested compound (20 µl of different concentrations in dimethyl sulfoxide (DMSO) and 980 µl of methanol). The reaction mixture was incubated in the dark at room temperature for 20 and 60 min after which the absorbance of the sample was measured spectrophotometrically at 517 nm. All measurements were performed in triplicate. Methanol was used as a control solution, whereas quercetin and nordihydroguaiaretic acid (NDGA) were used as reference compounds. […] IC50 is defined as the minimal concentration of tested compound required for reaching 50% of a maximum scavenging capacity. The results were presented as mean values ± standard deviation (s.d.) of three independent measurements. The stoichiometric factor (SF) was calculated for all compounds using the equation [45, 46]:1 SF=[DPPH]/(2×IC50)

Compound | IC50 (MRC-5; 24 h exposure) | IC50 (MRC-5; 72 h exposure) | IC50 (HCT-116; 24 h exposure) | IC50 (HCT-116; 72 h exposure) | IC50 [1] | selectivity index (SI) (HCT-116; after 24 h exposure) | selectivity index (SI) (HCT-116; after 72 h exposure) | stoichiometric factor (SF) [1] | cytotoxic effect in words (from IC50 values) (HCT-116; 72 h after treatment) | cytotoxic effect in words (from IC50 values) (HCT-116; 24 and 72 h exposure, 0,1 to 500 µM)
COc1cc(C(=O)N/N=C/c2ccc(O)cc2O)ccc1O [4g] | > 500 µM | 307 µM | 194 µM | > 500 µM | > 100 µM | – | – | – | – | –
COc1cc(/C=N/NC(=O)c2cc(O)c(O)c(O)c2)cc(OC)c1O [5f] | 84.3 µM | 40 µM | 86.9 µM | 43.6 µM | 1.1 ± 0.1 µM | 0.97 | 0.92 | 11.4 | – | –
COc1cc(C(=O)N/N=C/c2cccc(OC)c2O)ccc1O [4d] | > 500 µM | 128 µM | > 500 µM | 202 µM | > 100 µM | – | – | – | – | –
COc1cccc(/C=N/NC(=O)c2ccc(O)cc2)c1O [3d] | > 500 µM | 213 µM | > 500 µM | 94.1 µM | > 100 µM | – | 2.3 | – | – | –
O=C(N/N=C/c1ccc(O)cc1)c1ccc(O)cc1 [3c] | > 500 µM | > 500 µM | > 500 µM | > 500 µM | > 100 µM | – | – | – | – | –
COc1cc(/C=N/NC(=O)c2ccc(O)c(OC)c2)ccc1O [4e] | > 500 µM | > 500 µM | > 500 µM | > 500 µM | 22.1 ± 1.1 µM | – | – | 0.6 | – | –
COc1cc(C(=O)N/N=C/c2ccccc2)ccc1O [4a] | > 500 µM | > 500 µM | > 500 µM | > 500 µM | > 100 µM | – | – | – | – | –
COc1cccc(/C=N/NC(=O)c2cc(O)c(O)c(O)c2)c1O [5d] | 180 µM | 458 µM | 89.9 µM | > 500 µM | 1 ± 0.1 µM | 2.00 | <0.92 | 12.5 | – | –
COc1cc(/C=N/NC(=O)c2ccccc2O)cc(OC)c1O [2f] | > 500 µM | > 500 µM | > 500 µM | > 500 µM | 6.5 ± 0.4 µM | – | – | 1.9 | – | –
COc1cc(/C=N/NC(=O)c2cc(O)c(O)c(O)c2)ccc1O [5e] | > 500 µM | 45.8 µM | > 500 µM | 65.2 µM | 1.9 ± 0.1 µM | – | 0.70 | 6.6 | – | –
O=C(N/N=C/c1ccccc1O)c1ccccc1O [2b] | > 500 µM | 233 µM | 26.9 µM | 70.5 µM | > 100 µM | >18.59 | 3.30 | – | – | –
O=C(N/N=C/c1ccccc1)c1ccccc1O [2a] | > 500 µM | > 500 µM | > 500 µM | > 500 µM | > 100 µM | – | – | – | – | –
O=C(N/N=C/c1ccccc1)c1ccccc1 [1a] | > 500 µM | > 500 µM | > 500 µM | > 500 µM | > 100 µM | – | – | – | – | –
O=C(N/N=C/c1ccccc1O)c1ccccc1 [1b] | > 500 µM | > 500 µM | 249 µM | 139 µM | > 100 µM | >2.01 | >3.59 | – | – | –
COc1cc(C(=O)N/N=C/c2cc(OC)c(O)c(OC)c2)ccc1O [4f] | > 500 µM | > 500 µM | > 500 µM | > 500 µM | 6.3 ± 0.3 µM | – | – | 2 | – | –
O=C(N/N=C/c1ccc(O)cc1O)c1ccc(O)cc1 [3g] | > 500 µM | 440 µM | > 500 µM | 130 µM | > 100 µM | – | – | – | – | –
O=C(N/N=C/c1ccc(O)c(O)c1)c1cc(O)c(O)c(O)c1 [5h] | > 500 µM | 50.6 µM | > 500 µM | 58.8 µM | 0.7 ± 0.1 µM | – | 0.86 | 17.9 | – | –
COc1cc(/C=N/NC(=O)c2ccc(O)cc2)ccc1O [3e] | > 500 µM | > 500 µM | > 500 µM | > 500 µM | 28.4 ± 0.2 µM | – | – | 0.4 | – | –
CCc1c2c(nc3ccc(OC(=O)N4CCC(N5CCCCC5)CC4)cc13)-c1cc3c(c(=O)n1C2)COC(=O)[C@]3(O)CC [irinotecan, Irinotecan, reference compound] | > 500 µM | 35.2 µM | > 500 µM | 101 µM | – | – | 0.35 | – | moderate | –
CC(Cc1ccc(O)c(O)c1)C(C)Cc1ccc(O)c(O)c1 (centres unmarked) [NDGA, nordihydroguaiaretic acid, reference compound] | – | – | – | – | 1.7 ± 0.1 µM | – | – | 7.4 | – | –
O=c1c(O)c(-c2ccc(O)c(O)c2)oc2cc(O)cc(O)c12 [Quercetin, quercetin, reference compound] | – | – | – | – | 1.9 ± 0.1 µM | – | – | 6.6 | – | –
Nc1nc2c(c(=O)[nH]1)N(C=O)C(CNc1ccc(C(=O)N[C@@H](CCC(=O)O)C(=O)O)cc1)CN2 (some centres unmarked) [leucovorin, Leucovorin, reference compound] | > 500 µM | 180 µM | > 500 µM | > 500 µM | – | – | <0.36 | – | – | no effect
